Tested on: brain cell types
Assay: In vivo two-photon imaging of mouse cortex after topical cortical administration of fluorophores
Conditions: cell type taking up the compound in vivo (Table 1)
Description: Briefly, animals are anaesthetized via intraperitoneal injections of ketamine/xylazine or via inhaled isoflurane. A region of the skull (3×3 mm) is gently removed with a high-speed drill and the underlying dura is removed. A small glass coverslip is placed over the skull to allow long term optical access for in vivo imaging. Labeling with fluorescent dyes is performed either via intravenous injections or topically application to the cortical surface for 20 min prior to glass cover placement. After recovery, in vivo images are acquired using a two-photon microscope (Bruker Technologies) equipped with a multimodal (fixed wavelength 1040 nm and tunable wavelength) InSight X3 two-photon laser (Spectra Physics) and 20× water immersion objective (Zeiss 1.0N.A.). The two-photon laser is appropriately tuned to excite particular fluorescent dyes and proteins as needed. In selected cases, following in vivo imaging, mice will be sacrificed and perfused for follow up immunohistochemistry and high-resolution confocal imaging (Leica SP8) to further confirm colocalization of dyes and cells expressing particular transporters.
One-month-old wild-type mice were anesthetized using a ketamine/xylazine solution at doses of 100 mg/kg and 10 mg/kg, respectively. The fur around the skull area was shaved, and buprenex (0.1 mg per kg) and carprofen (5 mg per kg) were administered subcutaneously. Mice were kept on a heating pad at 37° C., and anesthesia was periodically monitored. The skin was treated with povidone-iodine solution, followed by cleaning with ethanol, and eye ointment was applied. A small skin section was excised to expose the skull. Thinning of the skull was performed in a circular area, followed by delicately lifting of the remaining skull without harm to the underlying brain. Within the circular region, the dura was gently removed using fine forceps, and a 4 mm cover glass was softly pressed onto the brain surface and affixed to the skull. Fluorescent dyes were applied either through intravenous injections or topically to the cortical surface for 20 minutes before placing the glass cover. A customized head bar was attached either by adhesive (for acute imaging) or permanently implanted (using dental cement, for chronic imaging) onto the skull. Mice were imaged under a two-photon microscope (Prairie Technologies) with a mode-locked MaiTai tunable laser (Spectra Physics). Imaging was performed with a 20× water immersion objective (Zeiss, 1.0NA). Images were captured at depths up to 300 μm from the pial surface using excitation wavelengths ranging from 750 to 950 nm as previously described. Mice undergoing chronic imaging received a recovery period on a heating pad post-surgery, and buprenex (0.1 mg per kg) and carprofen (5 mg per kg) were administered for 3 days.
Batches of 10 compounds were applied through the craniotomy to the cortical surface before placing a cover glass window. No additional washings were performed, and the cover glass was placed, allowing up to 3 hours of imaging of the cortical surface with a two-photon microscope. Following imaging, the data were analyzed to identify potential patterns of cell-specific labeling. […] Positive batches underwent three additional rounds of imaging, with each batch being sequentially split, until a single compound displaying cell-type-specific labeling was identified. As these compounds were not initially purified, the labeling may have resulted from fluorescent byproducts of synthesis. Consequently, large-scale synthesis, purification and characterization (FIGS. 29A-29D) of the identified compounds were conducted. The purified compounds were subsequently retested using in vivo imaging to confirm cell type specificity.
It was reasoned that the best strategy to identify fluorophores with specific affinity to certain cell types and transport mechanisms would be by direct screening in the intact in vivo brain microenvironment. […]

| Compound | Target |
| --- | --- |
| O=S(=O)([O-])c1cc(S(=O)(=O)O)ccc1C1=c2cc3c4c(c2Oc2cc(F)ccc21)CCC[N+]=4CCC3 [Compound 2, 2-(12-fluoro-1,2,3,5,6,7-hexahydrochromeno[2,3-f]pyrido[3,2,1-ij]quinolin-4-ium-9-yl)-5-sulfobenzenesulfonate] | Endothelial |
| O=S(=O)([O-])c1cc(S(=O)(=O)O)ccc1C1=c2cc3c4c(c2Oc2cc(Cl)ccc21)CCC[N+]=4CCC3 [Compound 3, 2-(12-chloro-1,2,3,5,6,7-hexahydrochromeno[2,3-f]pyrido[3,2,1-ij]quinolin-4-ium-9-yl)-5-sulfobenzenesulfonate] | Endothelial |
| O=S(=O)([O-])c1cc(S(=O)(=O)O)ccc1C1=c2cc3c4c(c2Oc2cc(I)ccc21)CCC[N+]=4CCC3 [Compound 4, 2-(12-iodo-1,2,3,5,6,7-hexahydrochromeno[2,3-f]pyrido[3,2,1-ij]quinolin-4-ium-9-yl)-5-sulfobenzenesulfonate] | Endothelial |
| O=S(=O)([O-])c1cc(S(=O)(=O)O)ccc1C1=c2cc3c4c(c2Oc2c(Br)cccc21)CCC[N+]=4CCC3 [Compound 5, 2-(13-bromo-1,2,3,5,6,7-hexahydrochromeno[2,3-f]pyrido[3,2,1-ij]quinolin-4-ium-9-yl)-5-sulfobenzenesulfonate] | Endothelial |
| O=S(=O)([O-])c1cc(S(=O)(=O)O)ccc1C1=c2cc3c4c(c2Oc2ccc(Br)cc21)CCC[N+]=4CCC3 [Compound 6, 2-(11-bromo-1,2,3,5,6,7-hexahydrochromeno[2,3-f]pyrido[3,2,1-ij]quinolin-4-ium-9-yl)-5-sulfobenzenesulfonate] | Endothelial |
| O=S(=O)([O-])c1cc(S(=O)(=O)O)ccc1C1=c2cc3c4c(c2Oc2c(Br)cc(Br)cc21)CCC[N+]=4CCC3 [Compound 7, 2-(11,13-dibromo-1,2,3,5,6,7-hexahydrochromeno[2,3-f]pyrido[3,2,1-ij]quinolin-4-ium-9-yl)-5-sulfobenzenesulfonate] | Endothelial |
| O=S(=O)([O-])c1cc(S(=O)(=O)O)ccc1C1=c2cc3c4c(c2Oc2cc(F)c(F)cc21)CCC[N+]=4CCC3 [Compound 8, 2-(11,12-difluoro-1,2,3,5,6,7-hexahydrochromeno[2,3-f]pyrido[3,2,1-ij]quinolin-4-ium-9-yl)-5-sulfobenzenesulfonate] | Endothelial |
| O=S(=O)([O-])c1cc(S(=O)(=O)O)ccc1C1=c2cc3c4c(c2Oc2cc(F)c(Cl)cc21)CCC[N+]=4CCC3 [Compound 9, 2-(11-chloro-12-fluoro-1,2,3,5,6,7-hexahydrochromeno[2,3-f]pyrido[3,2,1-ij]quinolin-4-ium-9-yl)-5-sulfobenzenesulfonate] | Endothelial |
| O=S(=O)([O-])c1cc(S(=O)(=O)O)ccc1C1=c2cc3c4c(c2Oc2cc(F)c(Br)cc21)CCC[N+]=4CCC3 [Compound 10, 2-(11-bromo-12-fluoro-1,2,3,5,6,7-hexahydrochromeno[2,3-f]pyrido[3,2,1-ij]quinolin-4-ium-9-yl)-5-sulfobenzenesulfonate] | Endothelial |
| O=S(=O)([O-])c1cc(S(=O)(=O)O)ccc1C1=c2cc3c4c(c2Oc2cc(Cl)c(F)cc21)CCC[N+]=4CCC3 [Compound 11, 2-(12-chloro-11-fluoro-1,2,3,5,6,7-hexahydrochromeno[2,3-f]pyrido[3,2,1-ij]quinolin-4-ium-9-yl)-5-sulfobenzenesulfonate] | Endothelial |

Same assay, conditions: topical cortical application

| Compound | endothelial cell labeling/uptake after topical application to the brain |
| --- | --- |
| CN(Cc1cnc2nc(NS(=O)(=O)c3ccc(C4=c5cc6c7c(c5Oc5cc(Br)ccc54)CCC[N+]=7CCC6)c(S(=O)(=O)[O-])c3)nc(N)c2n1)c1ccc(C(=O)N[C@@H](CCC(=O)O)C(=O)O)cc1 [52a/52b] | very strong |
| O=S(=O)([O-])c1cc(S(=O)(=O)O)ccc1C1=c2cc3c4c(c2Oc2cc(F)ccc21)CCC[N+]=4CCC3 [Compound 2, 2-(12-fluoro-1,2,3,5,6,7-hexahydrochromeno[2,3-f]pyrido[3,2,1-ij]quinolin-4-ium-9-yl)-5-sulfobenzenesulfonate] | selectively labeling endothelial cells in vivo |
| O=S(=O)([O-])c1cc(S(=O)(=O)O)ccc1C1=c2cc3c4c(c2Oc2cc(I)ccc21)CCC[N+]=4CCC3 [Compound 4, 2-(12-iodo-1,2,3,5,6,7-hexahydrochromeno[2,3-f]pyrido[3,2,1-ij]quinolin-4-ium-9-yl)-5-sulfobenzenesulfonate] | selectively labeling endothelial cells in vivo |

— patent publication US20260272895A1, “METHODS AND KITS FOR DELIVERY OF COMPOUNDS INTO CELLS” (Yale University, priority 2023, published 2026)
